Experimental data from the supplement of paper PMC10307832.

Tests used:
Experiment in all cases: relative viability (nuclei count vs DMSO), 5 days (fraction); higher = more cells survive
Metformin + Luminespib = compound: CN(C)C(=N)NC(=N)N [Metformin] + CCNC(=O)c1noc(-c2cc(C(C)C)c(O)cc2O)c1-c1ccc(CN2CCOCC2)cc1 [Luminespib] (partner 0.01 µM)
How it was run: (§1)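 Five library-drug doses in √10 steps were combined with a fixed anchor-drug dose, or a single drug was given alone, by pin tool to lung cancer cell lines in 1536-well plates the day after seeding. Nuclei were stained and counted after 5 days. Relative viability is the nuclei count in treated wells over that in vehicle wells, taken as the median of duplicate plates.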

Metformin + Crizotinib = compound: CN(C)C(=N)NC(=N)N [Metformin] + C[C@@H](Oc1cc(-c2cnn(C3CCNCC3)c2)cnc1N)c1c(Cl)ccc(F)c1Cl [Crizotinib] (partner 1 µM)
How it was run: as §1

Metformin + Pemetrexed = compound: CN(C)C(=N)NC(=N)N [Metformin] + Nc1nc2[nH]cc(CCc3ccc(C(=O)N[C@@H](CCC(=O)O)C(=O)O)cc3)c2c(=O)[nH]1 [Pemetrexed] (partner 0.2 µM)
How it was run: as §1

Apatinib + OSI-027 = compound: N#CC1(c2ccc(NC(=O)c3cccnc3NCc3ccncc3)cc2)CCCC1 [Apatinib] + COc1cccc2cc(-c3nc([C@H]4CC[C@H](C(=O)O)CC4)n4ncnc(N)c34)[nH]c12 [OSI-027] (partner 0.5 µM)
How it was run: as §1

Cell Line | relative viability (Metformin + Luminespib; first compound 10 µM) | relative viability (Metformin + Luminespib; first compound 31.62 µM) | relative viability (Metformin + Luminespib; first compound 100 µM) | relative viability (Metformin + Luminespib; first compound 1000 µM) | relative viability (Metformin + Crizotinib; first compound 10 µM) | relative viability (Metformin + Crizotinib; first compound 31.62 µM) | relative viability (Metformin + Crizotinib; first compound 100 µM) | relative viability (Metformin + Crizotinib; first compound 316.23 µM) | relative viability (Metformin + Crizotinib; first compound 1000 µM) | relative viability (Metformin + Pemetrexed; first compound 31.62 µM) | relative viability (Metformin + Pemetrexed; first compound 100 µM) | relative viability (Metformin + Pemetrexed; first compound 316.23 µM) | relative viability (Metformin + Pemetrexed; first compound 1000 µM) | relative viability (Apatinib + OSI-027; first compound 0.08 µM) | relative viability (Apatinib + OSI-027; first compound 0.253 µM) | relative viability (Apatinib + OSI-027; first compound 0.8 µM) | relative viability (Apatinib + OSI-027; first compound 2.53 µM) | relative viability (Apatinib + OSI-027; first compound 8 µM) | relative viability (Metformin + Luminespib; first compound 316.23 µM) | relative viability (Metformin + Pemetrexed; first compound 10 µM)
EKVX | 0.872 | 0.948 | 0.809 | 0.836 | 0.657 | 0.896 | 0.958 | 0.716 | 0.895 | 0.301 | 0.417 | 0.316 | 0.294 | 0.684 | 0.688 | 0.654 | 0.639 | 0.558 | – | –
EMC-BAC-2 | 1.23 | 1.24 | 1.21 | 1.33 | 0.731 | 0.8 | 0.828 | 0.702 | 0.805 | 0.488 | 0.452 | 0.492 | 0.48 | 0.413 | 0.389 | 0.357 | 0.338 | 0.291 | 1.19 | 0.429
EPLC-272H | 0.398 | 0.335 | 0.27 | 0.413 | 1.07 | 1.03 | 0.874 | 0.918 | 1.06 | 0.345 | 0.429 | 0.394 | 0.39 | 0.308 | – | 0.268 | 0.246 | 0.247 | 0.25 | 0.467
H3255 | 0.858 | 1.01 | 0.88 | 0.867 | 0.754 | 0.934 | 0.809 | 0.84 | 0.384 | 0.556 | 0.567 | 0.5 | 0.564 | 0.551 | 0.569 | 0.539 | 0.51 | 0.535 | 0.657 | 0.55
HARA | – | 0.897 | 0.895 | 0.776 | 1.13 | 1.09 | 1.15 | 1.01 | 1.08 | 0.28 | 0.327 | 0.301 | 0.28 | 0.782 | 0.359 | 0.482 | 0.448 | 0.303 | 0.775 | 0.323
HCC-15 | – | 0.235 | 0.348 | 0.321 | 0.818 | 0.81 | 0.889 | 0.8 | 0.833 | 0.21 | 0.207 | 0.228 | 0.22 | 0.719 | 0.691 | 0.658 | 0.628 | 0.509 | 0.35 | 0.233
HCC-44 | 1.19 | 1.07 | 1.03 | 0.748 | 0.824 | 0.788 | 0.785 | 0.749 | 0.776 | 0.593 | 0.593 | 0.531 | 0.603 | 0.457 | 0.524 | 0.395 | 0.446 | 0.522 | 0.926 | –
HCC-78 | – | – | – | – | 0.422 | 0.487 | 0.498 | 0.491 | 0.529 | 0.878 | 1.15 | 0.894 | 0.908 | 0.355 | 0.298 | 0.384 | 0.34 | 0.332 | – | –
HCC-366 | – | – | – | – | 0.608 | 0.502 | 0.532 | 0.398 | 0.709 | 0.21 | 0.139 | 0.162 | 0.158 | 1.06 | 0.88 | 0.815 | 0.744 | 0.494 | – | 0.13
